In patent US20220033389A1, “INSECTICIDAL COMPOUNDS” (SYNGENTA CROP PROTECTION AG, priority 2018, published 2022):

Columns and labels:
Assay type in all cases: in vivo
[1] = system: Thrips tabaci (Onion Thrips); experiment: Thrips tabaci (onion thrips) feeding/contact activity; conditions: 144 h, mixed ages, 6 days after infestation
Method: Thrips tabaci (Onion Thrips) Feeding/Contact Activity
(§1) Sunflower leaf discs were placed on agar in 24-well microtiter plates and sprayed with aqueous test solutions prepared from 10′000 ppm DMSO stock solutions. After drying the leaf discs were infested with a thrips population of mixed ages. The samples were assessed for mortality 6 days after infestation.

[2] = system: Tetranychus urticae (Two-Spotted Spider Mite); experiment: Tetranychus urticae (two-spotted spider mite) feeding/contact activity; conditions: 192 h, mixed population (mobile stages), 8 days after infestation
Method: Tetranychus urticae (Two-Spotted Spider Mite): Feeding/Contact Activity
as §1, with “Bean” for “Sunflower”, “discs” for “discs were placed”, “were” for “and”, “mite” for “thrips”, “on mixed population (mobile stages) 8” for “6”

[3] = system: Euschistus heros (Neotropical Brown Stink Bug); experiment: Euschistus heros (neotropical brown stink bug) on soybean leaves, spray; conditions: 120 h, N2 nymphs, 5 days after infestation, read-out: effect in at least one of the two categories (mortality or growth inhibition)
Method: Euschistus heros(Neotropical Brown Stink Bug) Soybean leaves on agar in 24-well microtiter plates were sprayed with aqueous test solutions prepared from 10′000 ppm DMSO stock solutions. After drying the leaves were infested with N2 nymphs. The samples were assessed for mortality and growth inhibition in comparison to untreated samples 5 days after infestation.

[4] = system: Plutella xylostella (Diamond Back Moth); experiment: Plutella xylostella (diamond back moth), eggs on artificial diet; conditions: 192 h, 8 days after infestation, read-out: effect in at least one of the two categories (mortality or growth inhibition)
Method: (§2) Plutella xylostella (Diamond Back Moth)
24-well microtiter plates with artificial diet were treated with aqueous test solutions prepared from 10′000 ppm DMSO stock solutions by pipetting. After drying, Plutella eggs were pipetted through a plastic stencil onto a gel blotting paper and the plate was closed with it. The samples were assessed for mortality and growth inhibition in comparison to untreated samples 8 days after infestation.

[5] = system: Spodoptera littoralis (Egyptian Cotton Leaf Worm); experiment: Spodoptera littoralis (Egyptian cotton leaf worm) on cotton leaf discs; conditions: foliar, 72 h, L1 larvae, 3 days after infestation
Method: Spodoptera littoralis (Egyptian Cotton Leaf Worm)
Cotton leaf discs were placed onto agar in 24-well microtiter plates and sprayed with aqueous test solutions prepared from 10′000 ppm DMSO stock solutions. After drying the leaf discs were infested with five L1 larvae. The samples were assessed for mortality, anti-feeding effect, and growth inhibition in comparison to untreated samples 3 days after infestation. Control of Spodoptera littoralis by a test sample is given when at least one of the categories mortality, anti-feedant effect, and growth inhibition is higher than the untreated sample.

[6] = system: Myzus persicae (Green Peach Aphid); experiment: Myzus persicae (green peach aphid) feeding/contact activity; conditions: 144 h, mixed ages, 6 days after infestation
Method: Myzus persicae (Green Peach Aphid): Feeding/Contact Activity
Sunflower leaf discs were placed onto agar in a 24-well microtiter plate and sprayed with aqueous test solutions prepared from 10′000 ppm DMSO stock solutions. After drying, the leaf discs were infested with an aphid population of mixed ages. The samples were assessed for mortality 6 days after infestation.

[7] = system: Diabrotica balteata (Corn Root Worm); experiment: Diabrotica balteata (corn root worm) on maize sprouts, spray; conditions: 96 h, L2 larvae, 4 days after infestation, read-out: effect in at least one of the two categories (mortality or growth inhibition)
Method: Diabrotica balteata (Corn Root Worm)
Maize sprouts placed onto an agar layer in 24-well microtiter plates were treated with aqueous test solutions prepared from 10′000 ppm DMSO stock solutions by spraying. After drying, the plates were infested with L2 larvae (6 to 10 per well). The samples were assessed for mortality and growth inhibition in comparison to untreated samples 4 days after infestation.

[8] = system: Plutella xylostella (Diamond Back Moth); experiment: Plutella xylostella (diamond back moth), L2 larvae on artificial diet; conditions: 120 h, 5 days after infestation, read-out: effect in at least one of the two categories (mortality or growth inhibition)
Method: as §2
24-well microtiter plates with artificial diet were treated with aqueous test solutions prepared from 10′000 ppm DMSO stock solutions by pipetting. After drying, the plates were infested with L2 larvae (10 to 15 per well). The samples were assessed for mortality and growth inhibition in comparison to untreated samples 5 days after infestation.

CCOC1=NOC(N(CN(C)C(=O)OC)C(=O)c2ccc(C3=NO[C@@](c4cc(Cl)c(F)c(Cl)c4)(C(F)(F)F)C3)cc2C)C1 (stereo partly drawn) [Compound A4, methyl N-[[[4-[(5S)-5-(3,5-dichloro-4-fluoro-phenyl)-5-(trifluoromethyl)-4H-isoxazol-3-yl]-2-methyl-benzoyl]-(3-ethoxy-4,5-dihydroisoxazol-5-yl)amino]methyl]-N-methyl-carbamate]
≥ 80%: mortality at 200 ppm [1] | mortality at 200 ppm [2] | percent effect (mortality or growth inhibition) at 200 ppm [3] | percent effect (mortality or growth inhibition) at 200 ppm [4] | percent control (mortality, anti-feedant effect or growth inhibition) at 200 ppm [5] | mortality at 200 ppm [6] | percent effect (mortality or growth inhibition) at 200 ppm [7]

CCOC1=NOC(N(COC(=O)C(C)(C)C)C(=O)c2ccc(C3=NO[C@@](c4cc(Cl)c(F)c(Cl)c4)(C(F)(F)F)C3)cc2C)C1 (stereo partly drawn) [Compound A3, [[4-[(5S)-5-(3,5-dichloro-4-fluoro-phenyl)-5-(trifluoromethyl)-4H-isoxazol-3-yl]-2-methyl-benzoyl]-(3-ethoxy-4,5-dihydroisoxazol-5-yl)amino]methyl 2,2-dimethylpropanoate]
≥ 80%: mortality at 200 ppm [1] | mortality at 200 ppm [2] | percent effect (mortality or growth inhibition) at 200 ppm [3] | percent control (mortality, anti-feedant effect or growth inhibition) at 200 ppm [5] | mortality at 200 ppm [6] | percent effect (mortality or growth inhibition) at 200 ppm [7] | effect (mortality or growth inhibition) at 200 ppm [8]

CCOC1=NOC(N(C(=O)c2ccc(C3=NO[C@@](c4cc(Cl)c(F)c(Cl)c4)(C(F)(F)F)C3)cc2C)C(=O)C2CC2)C1 (stereo partly drawn) [Compound A1, N-(cyclopropanecarbonyl)-4-[(5S)-5-(3,5-dichloro-4-fluoro-phenyl)-5-(trifluoromethyl)-4H-isoxazol-3-yl]-N-(3-ethoxy-4,5-dihydroisoxazol-5-yl)-2-methyl-benzamide]
≥ 80%: mortality at 200 ppm [1] | mortality at 200 ppm [2] | percent effect (mortality or growth inhibition) at 200 ppm [3] | percent control (mortality, anti-feedant effect or growth inhibition) at 200 ppm [5] | mortality at 200 ppm [6] | percent effect (mortality or growth inhibition) at 200 ppm [7] | effect (mortality or growth inhibition) at 200 ppm [8]

CCOC1=NOC(N(COC(=O)OC)C(=O)c2ccc(C3=NO[C@@](c4cc(Cl)c(F)c(Cl)c4)(C(F)(F)F)C3)cc2C)C1 (stereo partly drawn) [Compound A6, [[4-[(5S)-5-(3,5-dichloro-4-fluoro-phenyl)-5-(trifluoromethyl)-4H-isoxazol-3-yl]-2-methyl-benzoyl]-(3-ethoxy-4,5-dihydroisoxazol-5-yl)amino]methyl methyl carbonate]
≥ 80%: percent effect (mortality or growth inhibition) at 200 ppm [3] | percent effect (mortality or growth inhibition) at 200 ppm [4] | percent control (mortality, anti-feedant effect or growth inhibition) at 200 ppm [5]

CCOC1=NOC(N(COC(=O)C(C)C)C(=O)c2ccc(C3=NO[C@@](c4cc(Cl)c(F)c(Cl)c4)(C(F)(F)F)C3)cc2C)C1 (stereo partly drawn) [Compound A2, [[4-[(5S)-5-(3,5-dichloro-4-fluoro-phenyl)-5-(trifluoromethyl)-4H-isoxazol-3-yl]-2-methyl-benzoyl]-(3-ethoxy-4,5-dihydroisoxazol-5-yl)amino]methyl 2-methylpropanoate]
≥ 80%: mortality at 200 ppm [1] | mortality at 200 ppm [2] | percent effect (mortality or growth inhibition) at 200 ppm [3] | percent control (mortality, anti-feedant effect or growth inhibition) at 200 ppm [5] | mortality at 200 ppm [6] | percent effect (mortality or growth inhibition) at 200 ppm [7] | effect (mortality or growth inhibition) at 200 ppm [8]

CCOC1=NOC(N(COC(=O)C2CC2)C(=O)c2ccc(C3=NO[C@@](c4cc(Cl)c(F)c(Cl)c4)(C(F)(F)F)C3)cc2C)C1 (stereo partly drawn) [Compound A7, [[4-[(5S)-5-(3,5-dichloro-4-fluoro-phenyl)-5-(trifluoromethyl)-4H-isoxazol-3-yl]-2-methyl-benzoyl]-(3-ethoxy-4,5-dihydroisoxazol-5-yl)amino]methyl cyclopropanecarboxylate]
≥ 80%: percent effect (mortality or growth inhibition) at 200 ppm [3] | percent effect (mortality or growth inhibition) at 200 ppm [4] | percent control (mortality, anti-feedant effect or growth inhibition) at 200 ppm [5]

CCOC1=NOC(N(COC(=O)N(C)C)C(=O)c2ccc(C3=NO[C@@](c4cc(Cl)c(F)c(Cl)c4)(C(F)(F)F)C3)cc2C)C1 (stereo partly drawn) [Compound A5, [[4-[(5S)-5-(3,5-dichloro-4-fluoro-phenyl)-5-(trifluoromethyl)-4H-isoxazol-3-yl]-2-methyl-benzoyl]-(3-ethoxy-4,5-dihydroisoxazol-5-yl)amino]methyl N,N-dimethylcarbamate]
≥ 80%: mortality at 200 ppm [1] | mortality at 200 ppm [2] | percent effect (mortality or growth inhibition) at 200 ppm [3] | percent effect (mortality or growth inhibition) at 200 ppm [4] | percent control (mortality, anti-feedant effect or growth inhibition) at 200 ppm [5] | percent effect (mortality or growth inhibition) at 200 ppm [7]
